Data set [1] concerns scopolamine-induced cognitive deficits in mice. The data set can be described thus: Novel object recognition task, scopolamine-induced amnesia. Format: in vivo. As to conditions: 1, 10, and 30 mg/kg i.p.; scopolamine model.
Source text: (§1) In the scopolamine model, the PA and NOR tasks were used for dose selection for further testing.
The mice had unlimited access to food and water prior to the experiment. Specified conditions for the maintenance of mice were ensured throughout the experiment, including tree bedding (Transwior, Poland) and cage enrichment (tunnels, nesting material, wooden igloos, etc.). For behavioral tests, the mice were selected randomly; each group consisted of 7–10 mice. […] The procedures for maintenance and treatment of laboratory animals were approved by the first Local Ethics Committee in Krakow (Approval No. 645/2022, 760/2023, and 829/2024 and the treatment of animals was in full accordance with ethical standards laid down in respective Polish and EU regulations (Directive 2010/63/EU).
(§2) Scopolamine hydrobromide (Sigma-Aldrich, Poland) at the dose of 1 mg/kg was used to induce learning and memory deficits. For the in vivo tests, scopolamine was prepared in distilled water (Polfa Kutno, Poland) and was administered subcutaneously (s.c.) 30 min before behavioral tests during the acquisition (training) trial of PA and NOR tasks. […] They were administered intraperitoneally (i.p.) 60 min before the acquisition trial of the PA, NOR, and MWM tasks.
The experiment was conducted in opaque black boxes with dimensions of 50 × 50 × 50 cm. The 3 day procedure consists of habituation to the test arena (without any objects) for 10 min on the first day (T0), a training trial (T1), and a testing trial (T2) separated by a 24 h intertrial interval. During T1 (familiarization trial), two identical objects (A and B) were presented in the opposite corners of the arena, approximately 5 cm from its walls. During T2 (recognition trial), one of the objects (B) was replaced by a novel object (C), so that the animals were presented with A (familiar) and C (novel) objects. Both T1 and T2 trials lasted for 10 min, and after each trial, the animals returned to their home cages. White plastic round containers (height 5 cm, diameter 5 cm) attached to the ground with double-sided tape were used as the A, B objects, and green cuboids of similar height were used as object C. The objects were stable enough so that the animals could not displace them. The sequence of presentations and the location of the objects were randomly assigned to each mouse. The animals explored the objects by looking, licking, sniffing, or touching them while sniffing, but not when leaning against, standing, or sitting on the objects. Any mouse exploring the two objects for less than 5 s within the 10 min duration of T1 or T2 was eliminated from the study. An experimenter, blind to the drug treatment, measured the exploration time of the objects.
Data set [2] concerns mice (locomotor activity). The data set can be described thus: Locomotor activity test. As to conditions: 30 mg/kg, i.p., mean ± SEM.
Source text: The mice had unlimited access to food and water prior to the experiment. Specified conditions for the maintenance of mice were ensured throughout the experiment, including tree bedding (Transwior, Poland) and cage enrichment (tunnels, nesting material, wooden igloos, etc.). For behavioral tests, the mice were selected randomly; each group consisted of 7–10 mice. […] After in vivo tests, the animals were immediately euthanized, and their tissues were collected and stored for further ex vivo testing.
They were administered intraperitoneally (i.p.) 60 min before the acquisition trial of the PA, NOR, and MWM tasks.
The locomotor activity test was performed using activity cages (40 cm × 40 cm × 30 cm, supplied with IR beam emitters) (Activity Cage 7441, Ugo Basile, Italy) connected to a counter for the recording of light-beam interrupts. […] The animals’ movements (i.e., the number of light-beam crossings) were counted during the next 60 min of the test. Before the experiment, the mice were habituated to activity cages for 15 min.
For data set [3], the system named is scopolamine-induced cognitive deficits in mice. The data set is described as follows: Passive avoidance task, scopolamine-induced amnesia. To be noted: 1–30 mg/kg i.p. It is filed as in vivo.
Source text: as §1
The mice had unlimited access to food and water prior to the experiment. Specified conditions for the maintenance of mice were ensured throughout the experiment, including tree bedding (Transwior, Poland) and cage enrichment (tunnels, nesting material, wooden igloos, etc.). For behavioral tests, the mice were selected randomly; each group consisted of 7–10 mice.
as §2
The PA apparatus (Panlab Harvard Apparatus, Spain) consists of a large white-colored illuminated compartment (26 cm × 26 cm × 34 cm) and a small black-colored compartment (13 cm × 7.5 cm × 7.5 cm), which are separated from each other by a guillotine gate (5 cm × 5 cm). The PA task is divided into two trials (i.e., the acquisition trial and the retention trial), each conducted 24 h apart. On the first day, during the acquisition trial (a conditioning phase), the test compounds (94 and 95, neflamapimod and vehicle) were injected. Also, before the acquisition trial, scopolamine or LPS was administered at selected time points. Then, each mouse was placed into the white compartment, and a 30 s habituation period began (guillotine gate is closed). After that, the guillotine gate was opened, and the mice were tested during the 180 s testing period. As soon as the mouse entered the black compartment of the PA device, the guillotine gate was closed and an electrical shock (intensity: 0.2 mA, duration: 2 s) was automatically applied through the grid floor. For each mouse, the latency between the opening of the guillotine gate and the mouse’s entering the black compartment was measured. On the next day, during the retention (drug-off) trial, the mice were placed again into the white compartment for a 30 s habituation period, and the latency to enter the black compartment was measured for each mouse.
Data set [4] relates to mice (motor coordination). The data set is described as follows: Rotarod test. To be noted: 6, 18, and 24 rpm; all mice of the group. (In general: In the rotarod test animals must keep their balance on a rotating rod.)
Procedure: For behavioral tests, the mice were selected randomly; each group consisted of 7–10 mice.
In the rotarod, locomotor activity, and MWM tests, only one dose effective in the scopolamine model of amnesia was evaluated.
Three days before the rotarod test, the mice were trained on the rotarod apparatus (Rotarod apparatus, May Commat RR0711, Turkey; rod diameter: 2 cm) that was rotated at a fixed speed of 18 rpm. In each training session, the mice were placed on the rotating rod for 3 min with an unlimited number of trials. The proper experiment was performed 24 h after the last training trial. […] Motor impairments in mice were defined as the inability to remain on the rotarod apparatus for 1 min. The results are expressed as the mean time spent on the rotarod.
Data set [5] has as its system LPS-treated mice. The data set can be described thus: Morris water maze task, LPS model of neuroinflammation. Format: in vivo.
Procedure: The compounds were administered for 10 consecutive days, and on the last 6 days of their administration, LPS was also administered intraperitoneally 5 h before the test compounds. On these 6 days, the acquisition phase of the MWM task was performed. One day later, the retention, drug-off trial of the MWM task was carried out.
In the LPS model adult male C57BL/6J mice (Animal Breeding Farm of the Faculty of Pharmacy, Jagiellonian University Medical College) of similar weight and age were used. […] The mice had unlimited access to food and water prior to the experiment. Specified conditions for the maintenance of mice were ensured throughout the experiment, including tree bedding (Transwior, Poland) and cage enrichment (tunnels, nesting material, wooden igloos, etc.). For behavioral tests, the mice were selected randomly; each group consisted of 7–10 mice. […] After in vivo tests, the animals were immediately euthanized, and their tissues were collected and stored for further ex vivo testing.
LPS (Lipopolysaccharide from Escherichia coli O111:B4, Sigma-Aldrich, Poland) was used to induce neuroinflammation in mice. […] They were administered intraperitoneally (i.p.) 60 min before the acquisition trial of the PA, NOR, and MWM tasks. […] In the rotarod, locomotor activity, and MWM tests, only one dose effective in the scopolamine model of amnesia was evaluated.
The Morris water maze is a circular, plastic, and gray-painted pool (120 cm in diameter and 60 cm in height), filled with water (up to about 48 cm below the edge to prevent an animal from jumping out), maintained at 23 ± 1 °C. The pool was divided into four equal quadrants (compass locations: NE, NW, SE, SW) by a computerized video tracking system (SMART, ver. 3.0; Panlab, Spain). An escape platform (11 cm in diameter and 47 cm in height) at a fixed location (the center of the NW quadrant, i.e., the target quadrant) was made of transparent Plexiglas, being invisible to the swimming animal, and was immersed 1 cm under the surface of water. The maze was lighted with an intensity of 45 lx. […] The time taken to reach the hidden platform (escape latency) on days 1–6 was recorded for each mouse and analyzed. Each animal was released from a different starting point and was allowed to swim for 60 s. […] On the seventh day (a drug-off trial conducted 24 h after the last training trial), the platform was removed from the pool, and a probe trial was performed (without drug treatmentassessment of memory retention).
For data set [6], the system named is PBMCs. The data set is described as follows: Cytokine release from PHA-stimulated PBMCs. It is filed as cell-based, human. To be noted: 1, 2.5, and 5 μM, 18 h. The procedure:
Human PBMCs from healthy donors were isolated from heparinized blood by density gradient centrifugation with Ficoll-Paque. The isolated cells were washed twice with PBS, resuspended in RPMI 1640 medium (Sigma-Aldrich, St. Louis, MO, USA) supplemented with 10% heat-inactivated fetal bovine serum (Gibco), 2 mM L-glutamine (Sigma-Aldrich), 100 U/mL penicillin (Sigma-Aldrich), and 100 μg/mL streptomycin (Sigma-Aldrich), and used in the assays.
Peripheral blood mononuclear cells were seeded (500,000 cells/well) in 24-well plates in 500 μL of growth medium and treated with compounds 94, 95, and neflamapimod (1, 2.5, and 5 μM) in the presence or absence of PHA (1 μg/mL) or the corresponding vehicle (0.1% DMSO). Cell-free supernatants were collected after 18 h of incubation (37 °C, 5% CO2) and stored at −80 °C until tested. Cytokine production was determined with BD Cytometric Bead Array human inflammatory cytokines kit (BD Bioscience) on an Attune NxT flow cytometer (Thermo Fisher Scientific, Waltham, MA, USA). Standard curves were generated using recombinant cytokines contained in the kit. The data were analyzed using the FlowJo (Tree Star, Inc., Ashland, OR, USA) and Prism (GraphPad Prism 6.0, GraphPad Software) software.

Data set [7] in a line: Pharmacokinetic study in mice. As to conditions: for Kp: brain/serum; for half-life: serum and brain.
Procedure: In this study, male CD-1 mice weighing 27–34 g housed in conditions of constant temperature with a 12:12 h light-dark cycle with free access to food and water were used. Both tested and reference compounds were suspended in 1% Tween in water for injection (Polpharma, Poland) and administered intraperitoneally (i.p.). The mice were sacrificed by decapitation under isoflurane anesthesia at different time points following compound administration. Brains were harvested at the same time points. Blood was allowed to clot at room temperature for 20 min, and serum was separated by centrifugation at 8 000g (Eppendorf MiniSpin centrifuge, Germany) for 10 min. All samples were stored at −80 °C until analysis.
The analytical workflow employed a Sciex QTRAP 4500 triple quadrupole mass spectrometer interfaced with an Exion LC AC HPLC system (Danaher Corporation, USA). Chromatographic separation was achieved on an XBridge C18 column (3 × 50 mm, 5 μm; Waters, USA), utilizing a mobile phase composed of acetonitrile and water both containing 0.1% formic acid. The column temperature was maintained at 40 °C, and a gradient elution protocol (Table S10) was implemented to ensure optimal analyte resolution and retention times. Mass spectrometric detection was conducted in unit resolution mode, with ion transitions specified in Table S11. […] Valsartan served as the internal standard and was monitored at m/z 436 → 207 (collision energy = 42 eV). Positive electrospray ionization (ESI+) was employed to enhance detection sensitivity. Ion path parameters (Table S11) were optimized via direct infusion of analyte solutions (7 μL/min) using a syringe pump. The optimized source conditions included an ion spray voltage of 5500 V, a source temperature of 450 °C, curtain gas pressure at 20 psi, and medium collision gas pressure. […] No significant matrix effects or stability concerns were observed during routine sample analysis. Data acquisition and processing were carried out using Analyst software version 1.7.
Serial dilutions were performed to generate working solutions ranging from 0.01 to 20 μg/mL, corresponding to final calibration concentrations of 0.001–2 μg/mL. For calibration curve construction, 5 μL of each working solution was spiked into 45 μL of the relevant biological matrix (serum or brain homogenate) and vortexed for 10 s. Sample preparation involved protein precipitation, in a 1:3 (v/v) ratio, using acetonitrile containing 0.1% formic acid and the internal standard. The mixtures were agitated for 10 min using an IKA Vibrax VXR shaker (Germany), followed by centrifugation at 8000 × g for 5 min (Eppendorf miniSpin, Germany). The resulting supernatants were transferred to chromatographic vials for analysis.
Brain tissues were homogenized in distilled water at a 1:4 (w/v) ratio using an ULTRA-TURRAX T10 basic homogenizer (IKA, Germany). Aliquots of brain homogenate or serum (50 μL) were subjected to protein precipitation in a 1:3 (v/v) ratio with acetonitrile containing 0.1% formic acid and the internal standard. The mixtures were agitated for 10 min using an IKA Vibrax VXR shaker (Germany), followed by centrifugation at 8000 × g for 5 min (Eppendorf miniSpin, Germany). The resulting supernatants were directly transferred to chromatographic vials for analysis. In cases where analyte concentrations in serum exceeded 20 μg/mL, samples were diluted with blank matrix prior to the deproteinization step. The autosampler was maintained at 15 °C, and a 1 μL aliquot was injected onto the analytical column.
Pharmacokinetic parameters were estimated using the noncompartmental analysis (NCA). The maximum concentration (C max) and the time to reach maximum concentration (t max) in serum and brain were obtained directly from the concentration versus time data.
The subject of data set [8] is hBChE.
Data set [9] concerns the target human p38α MAPK (Homo sapiens, UniProt Q16539). To be noted: residual activity at 100 μM; mean ± SD, one experiment in triplicate.
Procedure: The inhibitory activities against human p38α MAPK were evaluated using the commercially available ADP-Glo Kinase Assay (Promega, Inc., USA).
For the reference sample, 1% [v/v] DMSO replaced the inhibitor solution. […] The enzyme reaction was started with the addition of the enzyme solution. The DMSO concentration in the test solution was maintained at 1% [v/v]. The plate was incubated for 60 min. Then 5 μL of ADP-Glo reagent was added, followed by a 40 min incubation at room temperature. […] All incubations were performed at room temperature. The RA and IC50 values were calculated as described above (ChEs inhibitory potency).
Data set [10] concerns hAChE.
Data set [11] deals with p38α MAPK.
For data set [12], the target named is hAChE (Homo sapiens, UniProt P22303). As to conditions: residual activity at 100 μM; mean ± SD, one experiment in triplicate.
Chain of hAChE (Homo sapiens, UniProt P22303) (P22303 32-614): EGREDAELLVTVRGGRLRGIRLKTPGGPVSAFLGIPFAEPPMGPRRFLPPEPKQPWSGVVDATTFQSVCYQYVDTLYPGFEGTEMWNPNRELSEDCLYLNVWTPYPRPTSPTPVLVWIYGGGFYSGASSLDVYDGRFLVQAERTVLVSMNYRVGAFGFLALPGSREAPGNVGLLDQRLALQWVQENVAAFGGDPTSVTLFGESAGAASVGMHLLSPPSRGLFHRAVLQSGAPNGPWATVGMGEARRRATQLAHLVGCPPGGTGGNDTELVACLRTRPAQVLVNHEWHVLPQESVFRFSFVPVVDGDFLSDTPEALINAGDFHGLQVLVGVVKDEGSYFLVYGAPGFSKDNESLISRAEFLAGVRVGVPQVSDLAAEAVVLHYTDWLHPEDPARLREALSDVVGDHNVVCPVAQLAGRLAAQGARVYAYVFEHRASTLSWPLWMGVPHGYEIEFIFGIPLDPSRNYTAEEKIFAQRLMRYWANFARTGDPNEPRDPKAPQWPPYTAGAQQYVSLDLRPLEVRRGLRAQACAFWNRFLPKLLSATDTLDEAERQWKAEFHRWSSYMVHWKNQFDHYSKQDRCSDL
Procedure: (§3) The inhibitory potencies of the compounds against the ChEs were determined using the method of Ellman. […] The final content of DMSO was always 1% [v/v]. […] The initial velocities in the presence (v i ) and absence (v 0) of the test compounds were calculated. The inhibitory potencies were expressed as the residual activities, according to RA = (v i – b)/(v 0 – b), where b is the blank value using phosphate buffer without ChEs. For IC50 determinations, at least seven different concentrations for each compound were used. The IC50 values were obtained by plotting the residual ChE activities against the applied inhibitor concentrations, with the experimental data fitted to a four-parameter logistic function (GraphPad Prism 10.0).
Data set [13] has as its target hBChE (Homo sapiens, UniProt P06276). To be noted: residual activity at 100 μM; mean ± SD, one experiment in triplicate.
Procedure: as §3
Data set [14] relates to scopolamine-induced cognitive deficits in mice. As to conditions: scopolamine-induced memory-impaired mice; doses of 1 and 2.5 mg/kg; reported previously; cited from earlier work.
Data set [15] has as its system mice (motor coordination). As to conditions: already at the dose of 1 mg/kg, as shown previously; cited from earlier work.
The subject of data set [16] is TLR4, COX-2, NLRP3, cPLA2 levels in brains of LPS-treated mice. The data set is described as follows: Western blot of brains of LPS-treated mice (ex vivo). It is filed as in vivo. To be noted: 94, 95: 10 mg/kg i.p.; rivastigmine 1 mg/kg i.p.; vs LPS-treated control. The procedure: After the completion of cognitive assays carried out in the LPS model, the mice were sacrificed, and their brains were collected and stored for further analysis. In the ex vivo part of the study, murine brains were homogenized using T-PER mammalian protein extraction reagent (Thermo Fisher Scientific, Waltham, MA, USA) with protease (Merck Millipore, Burlington, MA, USA) and phosphatase inhibitors (Cayman Chemical, Ann Arbor, MI, USA). The total protein concentrations were determined using the Bradford reaction. Forty μg of the total proteins were solubilized in Laemmli buffer with 2% 2-mercaptoethanol and were subject to 10% SDS-polyacrylamide gel electrophoresis. The anticyclooxygenase 2 (COX-2, diluted 1:1000), antitoll-like receptor 4 (TLR4, diluted 1:1000), anticytosolic phospholipase A2 (cPLA2, 1:1000), and anti-inflammasome (NLPR3, diluted 1:500) were used (Thermo Fisher Scientific, Waltham, MA, USA). The endogenous control was β-actin (1:1000) (Thermo Fisher Scientific, Waltham, MA, USA). The secondary antibody was antirabbit IgG (HRP) diluted 1:2000 (Thermo Fisher Scientific, Waltham, MA, USA). Proteins were detected using the Clarity Western ECL Luminol Substrate (Bio-Rad, Hercules, CA, USA). Chemi Doc Camera with Image Lab 6.1 software (Bio-Rad) was used to quantify the integrated optical density of the bands. The results were normalized to the data obtained for β-actin after stripping the PVDF membrane using Restore Western Blot Stripping Buffer (Thermo Fisher Scientific, Waltham, MA, USA) and expressed as relative to the control. This thorough process ensures the validity and reliability of the results.
(Immunoblotting shows a protein as a band on a membrane.)

The conditions of data set [17]: PAMPA.
Data set [18] deals with scopolamine-induced cognitive deficits in mice. As to conditions: 1 and 2.5 mg/kg doses; as shown previously; cited from earlier work.
Where [19] appears, read: 10 mg/kg i.p., p < 0.05 vs LPS-treated control.
Setting [20] is: brain, neflamapimod 30 mg/kg i.p., mice.
Where [21] appears, read: male, CD-1, mouse, brain, ip, 30 mg/kg.
Setting [22] is: male, CD-1, mouse, ip, 30 mg/kg.
Setting [23] is: male, CD-1, mouse, serum, ip, 30 mg/kg.
Setting [24] is: brain, rivastigmine 2.5 mg/kg i.p., mice.
[25] abbreviates: male, CD-1, mouse, brain, ip, 2.5 mg/kg.
The mark [26] stands for this setting: male, CD-1, mouse, ip, 2.5 mg/kg.
Setting [27] is: male, CD-1, mouse, serum, ip, 2.5 mg/kg.

Where “and” joins values, the source holds several entries; their conditions need not be identical. Equal values may be shown once.

Chain of human p38α MAPK (Q16539 whole entry): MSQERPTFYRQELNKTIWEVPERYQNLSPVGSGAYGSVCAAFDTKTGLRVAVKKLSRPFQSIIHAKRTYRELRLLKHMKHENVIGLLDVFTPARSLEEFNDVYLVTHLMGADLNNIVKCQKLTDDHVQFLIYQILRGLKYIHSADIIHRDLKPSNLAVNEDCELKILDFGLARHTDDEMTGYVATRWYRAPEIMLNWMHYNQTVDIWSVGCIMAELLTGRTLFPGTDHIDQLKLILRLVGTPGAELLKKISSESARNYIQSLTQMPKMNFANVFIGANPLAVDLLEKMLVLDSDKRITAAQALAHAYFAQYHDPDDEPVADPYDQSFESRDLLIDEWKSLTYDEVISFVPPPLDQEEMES
Chain of hBChE (Homo sapiens, UniProt P06276) (P06276 29-602): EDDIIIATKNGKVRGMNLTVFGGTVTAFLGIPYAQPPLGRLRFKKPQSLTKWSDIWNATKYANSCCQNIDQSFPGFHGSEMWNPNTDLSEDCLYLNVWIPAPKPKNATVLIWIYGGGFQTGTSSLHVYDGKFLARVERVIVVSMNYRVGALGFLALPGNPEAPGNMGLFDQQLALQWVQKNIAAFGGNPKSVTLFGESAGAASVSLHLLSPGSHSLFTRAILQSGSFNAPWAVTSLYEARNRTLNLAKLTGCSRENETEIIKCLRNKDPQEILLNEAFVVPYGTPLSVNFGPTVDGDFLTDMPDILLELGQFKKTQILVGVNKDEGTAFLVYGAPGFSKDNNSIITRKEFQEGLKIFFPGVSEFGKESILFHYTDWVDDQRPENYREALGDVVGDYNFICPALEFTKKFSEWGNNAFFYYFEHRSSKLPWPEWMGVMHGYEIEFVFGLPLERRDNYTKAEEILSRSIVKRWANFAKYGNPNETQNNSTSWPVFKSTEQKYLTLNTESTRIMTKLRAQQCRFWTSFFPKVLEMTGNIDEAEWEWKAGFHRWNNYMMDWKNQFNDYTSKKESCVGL

The AUC(0-t) is exposure summed from dosing to a finite time, without extrapolation to infinity. Low readings indicate low exposure, high ones high exposure. As usually defined, the Cmax is the peak of the concentration-time curve. As usually defined, the MRT is a mean duration of stay, worked out from the concentration-time curve. Usually Tmax stands for the time from dosing to the highest level. What is called Kp is tissue or fluid exposure divided by exposure in the circulation. As usually defined, the half-life is the time needed for the level to fall by half in the phase considered. A low value points to fast loss. Usually AUC(0-inf) stands for the area under the concentration-time curve extrapolated to infinity. Higher therefore signals more exposure. A word on the CL/F: it is clearance divided by bioavailability, as obtained after extravascular dosing. As a reminder, the Vd/F is the apparent distribution volume after extravascular dosing. Consider `O=c1ncn2nc(Sc3ccc(F)cc3F)ccc2c1-c1c(Cl)cccc1Cl` [neflamapimod, reference compound], for which the “effect in NOR task” value in [1] is “did not reveal its memory-improving properties”. The “number of light-beam crossings” value in data set [2] worked out at 2481 ± 195. The “effect on scopolamine-induced memory decline in PA task” value in [3] is recorded as “did not confirm memory-improving properties”. The “time spent on the rotarod” value in data set [4] stood at 60 s. For the same compound, in [5] (setting [19]), the “time spent at the target zone (MWM day 7)” value was “increased” and the “time spent in the NW zone (MWM day 7)” value is given as “increased”. In addition, the “spatial learning, acquisition phase of MWM” value in data set [5] (10 and 30 mg/kg i.p., LPS-treated mice) is “effective in improving spatial learning only on day 3”. Also, the “production of pro-inflammatory cytokines IL-8, IL-1β, IL-6, IL-10, and TNF-α” value in [6] is on record as “significantly inhibited”. For the same compound, in [7] (setting [20]), the “AUC0-∞” value was 755355.60 ng·min/mL(g), the AUC(0-t) was 566796.70 ng·min/mL(g) and the t0.5λz came out at 1049.79 min. In data set [7] (setting [21]), the concentration peaked (Cmax) at 2290 ng/g, the MRT was 999 min, the Tmax was 15 min and the k el was 1.1e-05 s⁻¹. In data set [7] (setting [22]), this compound came in with a Kp of 0.68 and a half-life of roughly 1000 min. In addition, in data set [7] (setting [23]), the AUC(0-inf) is 18700 ng·h/mL, the AUC(0-t) is 14400 ng·h/mL, the CL/F was 27 mL/min/kg and the Cmax turned out to be 4090 ng/mL. Besides, in data set [7] (setting [23]), the MRT was 903 min, the Tmax is 15 min, the Vd/F came to 37.8 L/kg and the k el is 1.18e-05 s⁻¹. Further, in data set [7] (serum, neflamapimod 30 mg/kg i.p., mice), the t0.5λz was found to be 978.45 min.

Regarding `COc1ccc(Oc2cc3cnn(CC(C)C)c3cc2C(=O)NCCN(C)C)cc1` [Compound 91, N-(2-(Dimethylamino)ethyl)-1-isobutyl-5-(4-methoxyphenoxy)-1H-indazole-6-carboxamide], the “RA at 100 µM” value is recorded as 54.1 ± 1.3% in [8], 75.2 ± 3.8% in data set [10] and 0.9 ± 0.3% in data set [11]. Also, the “p38α MAPK RA at 100 μM” value in [9] is listed as 0.9 ± 0.3%. Also, in [12], the “hAChE RA at 100 μM” value is 75.2% and 75.2 ± 3.8%. In [13], the “hBChE RA at 100 μM” value is 54.1% and 54.1 ± 1.3%.

For `CCN(C)C(=O)Oc1cccc([C@H](C)N(C)C)c1` [rivastigmine, reference compound], the “procognitive efficacy in PA task” value in [14] is “procognitive activity”. Moreover, the “motor side effects shortly after administration” value in [15] was “caused muscle tremor and transient motor coordination deficits”. In data set [16], the “brain cPLA2 expression” value is listed as “no difference”; the “brain levels of TLR4, COX-2, and NLRP3” value is listed as “significantly lower levels”. Besides, in data set [5] (1 mg/kg i.p.), the “efficacy in the LPS model of neuroinflammation accompanied by memory decline” value was “not effective”. The “escape latency, acquisition phase of MWM” value in [5] (1 mg/kg i.p., vs LPS-treated control, transient, not on days 4–6) is on record as “statistically significantly lower escape latencies were observed on day 3”. Moreover, in data set [17], the “CNS (+/–)” value was “CNS+ (key: CNS+ indicates high predicted BBB permeation [Pe (×10–6 cm/s) > 4.0]; CNS– indicates low predicted BBB permeation [Pe (×10–6 cm/s) < 2.0])”. Moreover, the “efficacy in PA and NOR tasks” value in data set [18] is “effective”. Also, in data set [7] (setting [24]), the “AUC0-∞” value is recorded as 12082.71 ng·min/mL(g), the AUC(0-t) was 11678.40 ng·min/mL(g) and the t0.5λz was 32.64 min. Besides, in data set [7] (setting [25]), the concentration peaked (Cmax) at 609 ng/g, the MRT was 26.6 min, the Tmax is 5 min and the k el is 0.00035 s⁻¹. In data set [7] (setting [26]), this compound came in with a Kp of 4.16 and a half-life of roughly 30 min. In data set [7] (setting [27]), this compound showed an AUC(0-inf) of 48.4 ng·h/mL, an AUC(0-t) of 46.8 ng·h/mL, a CL/F of 860 mL/min/kg and a Cmax of 142 ng/mL. In data set [7] (setting [27]), the MRT is 27.8 min, the Tmax was 5 min, the Vd/F was determined as 37.2 L/kg and the k el is 0.000383 s⁻¹. Also, the t0.5λz in data set [7] (serum, rivastigmine 2.5 mg/kg i.p., mice) amounted to 29.99 min.

Values taken from article PMC12406203 (Journal of Medicinal Chemistry, 2025).
